Data: ChEMBL document CHEMBL4261498, “Synthesis, characterization, and radioprotective activity of α,β-unsaturated aryl sulfone analogs and their Tempol conjugates” (Medchemcomm, 2017)
The source made the active and inactive calls. The rule behind the calls is not given here.

Legend:
[1] = system: HUVEC; experiment: (§1) Radioprotective activity against 5 Gy gamma radiation-mediated cell damage in HUVEC assessed as early apoptotic cells at 0.01 uM preincubated for 2 hrs followed by 5 Gy gamma irradiation and measured after 24 hrs by annexin-V-FITC/propidium iodide staining-based flow cytometric method (reference value: 21.2%); assay type: functional, Homo sapiens
[2] = system: HUVEC; experiment: as §1, with “late” for “early”, “9.5%)” for “21.2%)”; assay type: functional, Homo sapiens
[3] = system: HUVEC; experiment: Radioprotective activity against 5 Gy gamma radiation-mediated cell damage in HUVEC assessed as increase in cell survival at 0.01 to 10 uM preincubated for 2 hrs followed by 5 Gy gamma irradiation and measured after 48 hrs by MTT assay; assay type: functional, cell-based; settings: Homo sapiens
[4] = system: HUVEC; experiment: as §1, with “viable” for “early apoptotic”, “65.8%)” for “21.2%)”; assay type: functional; settings: Homo sapiens, light or radiation study, read-out: Activity
[5] = system: HUVEC; experiment: Cytotoxicity against HUVEC at <10 uM after 24 hrs by MTT assay; assay type: cell-based; settings: human
[6] = system: HUVEC; experiment: as §1, with “necrotic” for “early apoptotic”, “0.1” for “0.01”, “3.5%)” for “21.2%)”; assay type: functional, Homo sapiens
[7] = system: HUVEC; experiment: as §1, with “0.1” for “0.01”; assay type: functional, Homo sapiens
[8] = system: HUVEC; experiment: (§2) Radioprotective activity against 5 Gy gamma radiation-mediated cell damage in HUVEC assessed as necrotic cells at 1 uM preincubated for 2 hrs followed by 5 Gy gamma irradiation and measured after 24 hrs by annexin-V-FITC/propidium iodide staining-based flow cytometric method (reference value: 3.5%); assay type: functional, Homo sapiens
[9] = system: HUVEC; experiment: as §1, with “1” for “0.01”; assay type: functional, Homo sapiens
[10] = system: HUVEC; experiment: as §2, with “late apoptotic” for “necrotic”, “9.5%)” for “3.5%)”; assay type: functional, Homo sapiens
[11] = system: HUVEC; experiment: Radioprotective activity against 5 Gy gamma radiation-mediated cell damage in HUVEC assessed as viable cells at 1 uM preincubated for 2 hrs followed by 5 Gy gamma irradiation and measured after 24 hrs by annexin-V-FITC/propidium iodide staining-based flow cytometric method (reference value: 65.8%); assay type: functional; settings: Homo sapiens, light or radiation study, read-out: Activity
[12] = system: HUVEC; experiment: (§3) Radioprotective activity against 5 Gy gamma radiation-mediated cell damage in HUVEC assessed as viable cells at 0.1 uM preincubated for 2 hrs followed by 5 Gy gamma irradiation and measured after 24 hrs by annexin-V-FITC/propidium iodide staining-based flow cytometric method (reference value: 65.8%); assay type: functional; settings: Homo sapiens, light or radiation study, read-out: Activity
[13] = system: HUVEC; experiment: as §2, with “0.01” for “1”; assay type: functional, Homo sapiens
[14] = system: HUVEC; experiment: as §3, with “late apoptotic” for “viable”, “9.5%)” for “65.8%)”; assay type: functional, Homo sapiens
[15] = system: HUVEC; experiment: (§4) Radioprotective activity against 5 Gy gamma radiation-mediated cell damage in HUVEC assessed as viable cells at 10 uM preincubated for 2 hrs followed by 5 Gy gamma irradiation and measured after 24 hrs by annexin-V-FITC/propidium iodide staining-based flow cytometric method (reference value: 65.8%); assay type: functional; settings: Homo sapiens, light or radiation study, read-out: Activity
[16] = system: HUVEC; experiment: Radioprotective activity against 5 Gy gamma radiation-mediated cell damage in HUVEC assessed as decrease in Bax levels at 0.1 to 10 uM by Western blot method; assay type: functional, cell-based; settings: Homo sapiens
[17] = system: HUVEC; experiment: Radioprotective activity against 5 Gy gamma radiation-mediated cell damage in HUVEC assessed as necrotic cells at 10 uM preincubated for 2 hrs followed by 5 Gy gamma irradiation and measured after 24 hrs by annexin-V-FITC/propidium iodide staining-based flow cytometric method (reference value: 3.5%); assay type: functional, Homo sapiens
[18] = system: HUVEC; experiment: Cytotoxicity against HUVEC after 24 hrs by MTT assay; assay type: cell-based; settings: human
[19] = system: HUVEC; experiment: Radioprotective activity against 5 Gy gamma radiation-mediated cell damage in HUVEC assessed as increase in cell survival at 0.1 to 10 uM preincubated for 2 hrs followed by 5 Gy gamma irradiation and measured after 48 hrs by MTT assay; assay type: functional, cell-based; settings: Homo sapiens
[20] = system: HUVEC; experiment: Radioprotective activity against 5 Gy gamma radiation-mediated cell damage in HUVEC assessed as increase in Bcl-2 levels at 0.1 to 10 uM by Western blot method; assay type: functional, cell-based; settings: Homo sapiens
[21] = system: HUVEC; experiment: Radioprotective activity against 5 Gy gamma radiation-mediated cell damage in HUVEC assessed as reduction of phopsho-p53 levels at 0.1 to 10 uM by Western blot method; assay type: functional, cell-based; settings: Homo sapiens
[22] = system: HUVEC; experiment: Radioprotective activity against 5 Gy gamma radiation-mediated cell damage in HUVEC assessed as decrease in caspase-3 activation at 0.1 to 10 uM by Western blot method; assay type: functional, cell-based; settings: Homo sapiens
[23] = system: HUVEC; experiment: as §4, with “late apoptotic” for “viable”, “9.5%)” for “65.8%)”; assay type: functional, Homo sapiens
[24] = system: HUVEC; experiment: Radioprotective activity against 5 Gy gamma radiation-mediated cell damage in HUVEC assessed as reduction of total p53 levels at 0.1 to 10 uM by Western blot method; assay type: functional, cell-based; settings: Homo sapiens
[25] = system: HUVEC; experiment: as §1, with “10” for “0.01”; assay type: functional, Homo sapiens
[26] = system: HUVEC; experiment: Radioprotective activity against 5 Gy gamma radiation-mediated cell damage in HUVEC assessed as increase in cell survival at 0.1 to 10 uM after 48 hrs by MTT assay; assay type: functional, cell-based; settings: Homo sapiens
[27] = system: HUVEC; experiment: Radioprotective activity against 5 Gy gamma radiation-mediated cell damage in HUVEC assessed as cell survival at 0.1 uM preincubated for 2 hrs followed by 5 Gy gamma irradiation and measured after 48 hrs by MTT assay relative to control; assay type: functional; settings: Homo sapiens, light or radiation study, read-out: Survival
[28] = system: HUVEC; experiment: Radioprotective activity against 5 Gy gamma radiation-mediated cell damage in HUVEC assessed as reduction of phopsho-p53 levels at 0.01 to 1 uM by Western blot method; assay type: functional, cell-based; settings: Homo sapiens
[29] = system: HUVEC; experiment: Radioprotective activity against 5 Gy gamma radiation-mediated cell damage in HUVEC assessed as increase in Bcl-2 levels at 0.01 to 1 uM by Western blot method; assay type: functional, cell-based; settings: Homo sapiens
[30] = system: HUVEC; experiment: Radioprotective activity against 5 Gy gamma radiation-mediated cell damage in HUVEC assessed as decrease in Bax levels at 0.01 to 1 uM by Western blot method; assay type: functional, cell-based; settings: Homo sapiens
[31] = system: HUVEC; experiment: Radioprotective activity against 5 Gy gamma radiation-mediated cell damage in HUVEC assessed as increase in cell survival at 0.01 to 1 uM after 48 hrs by MTT assay; assay type: functional, cell-based; settings: Homo sapiens
[32] = system: HUVEC; experiment: Radioprotective activity against 5 Gy gamma radiation-mediated cell damage in HUVEC assessed as reduction of total p53 levels at 0.01 to 1 uM by Western blot method; assay type: functional, cell-based; settings: Homo sapiens
[33] = system: HUVEC; experiment: Radioprotective activity against 5 Gy gamma radiation-mediated cell damage in HUVEC assessed as decrease in caspase-3 activation at 0.01 to 1 uM by Western blot method; assay type: functional, cell-based; settings: Homo sapiens

## CC1(C)CC(OC(=O)c2ccc(/C=C/S(=O)(=O)Cc3ccc(F)cc3)cc2)CC(C)(C)N1[O]
[1]
  Activity: 13%
[2]
  Activity: 4%
[3]
  Activity: Active
[4]
  viability at 0.01 µM: 81%
[5]
  Activity: Non-Toxic
[6]
  Activity: 1.4%
[7]
  Activity: 7.1%
[8]
  Activity: 1%
[9]
  Activity: 6.8%
[10]
  Activity: 1.4%
[11]
  viability at 1 µM: 90.8%
[12]
  viability at 0.1 µM: 88.8%
[13]
  Activity: 1.9%
[14]
  Activity: 2.7%

## O=C(O)c1ccc(/C=C/S(=O)(=O)Cc2ccc(F)cc2)cc1
[15]
  viability at 10 µM: 93.4%
[16]
  Activity: Active
[17]
  Activity: 1%
[18]
  Activity: Toxic
[19]
  Activity: inactive
[20]
  Activity: Active
[21]
  Activity: Active
[6]
  Activity: 1.5%
[7]
  Activity: 7.3%
[8]
  Activity: 1.6%
[9]
  Activity: 10.5%
[10]
  Activity: 2.3%
[22]
  Activity: Active
[23]
  Activity: 1%
[24]
  Activity: Active
[11]
  viability at 1 µM: 85.6%
[12]
  viability at 0.1 µM: 90.4%
[25]
  Activity: 4.7%
[14]
  Activity: 0.8%

## CC(C)(C)c1ccc(CS(=O)(=O)/C=C/c2ccc(C(=O)OC3CC(C)(C)N([O])C(C)(C)C3)cc2)cc1
[5]
  Activity: Non-Toxic

## CC(c1ccccc1)S(=O)(=O)/C=C/c1ccc(C(=O)O)cc1 (stereo not given)
[26]
  Activity: Active
[18]
  Activity: Toxic
[19]
  Activity: Active

## O=S(=O)(/C=C/c1ccccc1)Cc1ccc(Cl)cc1
[18]
  Activity: Toxic

## O=C(O)c1ccc(/C=C/S(=O)(=O)Cc2ccc(OC(F)(F)F)cc2)cc1
[15]
  viability at 10 µM: 81.9%
[27]
  viability at 0.1 µM: 50%
[16]
  Activity: Active
[17]
  Activity: 3%
[26]
  Activity: Active
[18]
  Activity: Toxic
[20]
  Activity: Active
[21]
  Activity: Active
[6]
  Activity: 4.3%
[7]
  Activity: 7.8%
[8]
  Activity: 3.4%
[9]
  Activity: 8.5%
[10]
  Activity: 6.2%
[22]
  Activity: Active
[23]
  Activity: 8.1%
[24]
  Activity: Active
[11]
  viability at 1 µM: 81.9%
[12]
  viability at 0.1 µM: 83.3%
[25]
  Activity: 7%
[14]
  Activity: 4.7%

## Cc1ccc(CS(=O)(=O)/C=C/c2ccc(C(=O)O)cc2)cc1
[18]
  Activity: Toxic

## O=C(O)c1ccc(/C=C/S(=O)(=O)Cc2ccc(C(F)(F)F)cc2)cc1
[18]
  Activity: Toxic

## CC1(C)CC(OC(=O)c2ccc(/C=C/S(=O)(=O)Cc3ccc(OC(F)(F)F)cc3)cc2)CC(C)(C)N1[O]
[28]
  Activity: Active
[1]
  Activity: 15%
[29]
  Activity: Active
[30]
  Activity: Active
[2]
  Activity: 1.4%
[3]
  Activity: inactive
[31]
  Activity: Active
[4]
  viability at 0.01 µM: 82.5%
[5]
  Activity: Non-Toxic
[6]
  Activity: 0.6%
[7]
  Activity: 12.7%
[8]
  Activity: 1.7%
[9]
  Activity: 6.9%
[10]
  Activity: 1.1%
[11]
  viability at 1 µM: 90.3%
[12]
  viability at 0.1 µM: 84.7%
[32]
  Activity: Active
[13]
  Activity: 1.1%
[14]
  Activity: 2%
[33]
  Activity: Active
